In data set [1] the test system is Mus musculus. Put plainly: Anti-pulmonary fibrosis activity in bleomycin-induced C57BL/6 mouse model of pulmonary fibrosis assessed as decrease in collapse of the alveolar cavity in lung at 50 to 100 mg/kg, ip for 3 weeks by Masson trichrome staining based microscopic analysis. It is filed as functional, organism-based. As to conditions: dose 50-100 mg/kg.
Data set [2] relates to Mus musculus. The data set can be described thus: Anti-pulmonary fibrosis activity in bleomycin-induced C57BL/6 mouse model of pulmonary fibrosis assessed as decrease in collagen fiber deposition in lung at 50 to 100 mg/kg, ip for 3 weeks by Masson trichrome staining based microscopic analysis. It is filed as functional, organism-based. As to conditions: dose 50-100 mg/kg.

Another data set concerns the target Histone deacetylase 4 (Homo sapiens, UniProt P56524). Put plainly: Inhibition of recombinant human HDAC4 using Boc-Lys (Ac)-AMC as substrate incubated for 120 mins by fluorescence analysis.
Data set [3] has as its system Mus musculus. Put plainly: Anti-pulmonary fibrosis activity in bleomycin-induced C57BL/6 mouse model of pulmonary fibrosis assessed as decrease structural damage in lung at 50 to 100 mg/kg, ip for 3 weeks by H and E staining based fluorescence microscopic analysis. It is filed as functional, organism-based. To be noted: dose 50-100 mg/kg.
For data set [4], the target named is T1, Protein deacetylase HDAC6 (Homo sapiens, UniProt Q9UBN7).
T1 sequence (Q9UBN7 whole entry): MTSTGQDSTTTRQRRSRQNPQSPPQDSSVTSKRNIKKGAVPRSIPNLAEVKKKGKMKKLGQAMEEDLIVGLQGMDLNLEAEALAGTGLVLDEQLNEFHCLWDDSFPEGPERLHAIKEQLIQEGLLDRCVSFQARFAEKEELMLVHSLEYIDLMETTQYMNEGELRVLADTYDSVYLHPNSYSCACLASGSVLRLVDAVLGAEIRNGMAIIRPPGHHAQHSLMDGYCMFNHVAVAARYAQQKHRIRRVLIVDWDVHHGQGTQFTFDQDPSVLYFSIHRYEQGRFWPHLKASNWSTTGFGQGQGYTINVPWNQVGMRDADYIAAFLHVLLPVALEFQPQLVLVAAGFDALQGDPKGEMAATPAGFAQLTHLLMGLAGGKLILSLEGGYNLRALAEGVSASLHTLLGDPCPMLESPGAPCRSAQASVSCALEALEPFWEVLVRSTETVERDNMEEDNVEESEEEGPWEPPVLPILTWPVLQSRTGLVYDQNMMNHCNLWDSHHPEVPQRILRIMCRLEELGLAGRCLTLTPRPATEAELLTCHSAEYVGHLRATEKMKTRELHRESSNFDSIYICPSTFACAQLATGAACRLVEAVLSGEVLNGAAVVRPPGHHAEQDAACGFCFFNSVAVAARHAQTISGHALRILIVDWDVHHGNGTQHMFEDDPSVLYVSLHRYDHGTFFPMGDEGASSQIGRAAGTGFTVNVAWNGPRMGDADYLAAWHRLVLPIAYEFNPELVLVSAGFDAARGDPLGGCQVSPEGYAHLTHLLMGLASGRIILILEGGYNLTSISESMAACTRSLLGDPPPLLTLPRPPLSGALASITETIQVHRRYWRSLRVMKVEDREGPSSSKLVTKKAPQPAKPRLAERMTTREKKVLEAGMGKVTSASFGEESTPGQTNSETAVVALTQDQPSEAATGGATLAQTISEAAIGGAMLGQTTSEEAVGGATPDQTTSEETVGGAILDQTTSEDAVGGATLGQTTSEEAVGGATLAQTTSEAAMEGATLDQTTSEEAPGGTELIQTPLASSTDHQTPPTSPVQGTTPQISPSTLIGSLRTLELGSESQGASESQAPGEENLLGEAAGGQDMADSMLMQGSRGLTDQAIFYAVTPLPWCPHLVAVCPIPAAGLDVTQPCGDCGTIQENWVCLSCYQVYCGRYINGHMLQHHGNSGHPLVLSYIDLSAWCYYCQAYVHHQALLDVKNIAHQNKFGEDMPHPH
The data set can be described thus: Inhibition of recombinant human full length HDAC6 using Boc-Lys (Ac)-AMC as substrate incubated for 120 mins by fluorescence analysis.

Data set [5] is described as follows: Cytotoxicity against HELF cells assessed as reduction in viability at 2.5 to 10 uM after 48 hrs by MTT assay. It is filed as toxicity, cell-based. As to conditions: human, dose 2.5-10 µM. On the technique in general: Formazan colour is commonly taken as a measure of viable cells.
The test system of data set [6] is Mus musculus. Put plainly: Anti-pulmonary fibrosis activity in bleomycin-induced C57BL/6 mouse model of pulmonary fibrosis assessed as increase in body weight at 50 to 100 mg/kg, ip for 3 weeks. It is filed as functional, organism-based. As to conditions: dose 50-100 mg/kg.
Data set [7] has as its system Mus musculus. The data set can be described thus: Anti-pulmonary fibrosis activity in bleomycin-induced C57BL/6 mouse model of pulmonary fibrosis assessed as inhibition of HDAC activity in lung at 50 to 100 mg/kg, ip for 3 weeks by fluorescence based microplate reader analysis. It is filed as functional, organism-based. To be noted: dose 50-100 mg/kg.
The subject of data set [8] is Mus musculus. The data set can be described thus: Anti-pulmonary fibrosis activity in bleomycin-induced C57BL/6 mouse model of pulmonary fibrosis assessed as decrease in collagen level in lung at 50 to 100 mg/kg, ip for 3 weeks by Masson trichrome staining based microscopic analysis. It is filed as functional, organism-based. As to conditions: dose 50-100 mg/kg.
The next data set deals with T2, Histone deacetylase 11 (Homo sapiens, UniProt Q96DB2).
T2 sequence (Q96DB2 whole entry): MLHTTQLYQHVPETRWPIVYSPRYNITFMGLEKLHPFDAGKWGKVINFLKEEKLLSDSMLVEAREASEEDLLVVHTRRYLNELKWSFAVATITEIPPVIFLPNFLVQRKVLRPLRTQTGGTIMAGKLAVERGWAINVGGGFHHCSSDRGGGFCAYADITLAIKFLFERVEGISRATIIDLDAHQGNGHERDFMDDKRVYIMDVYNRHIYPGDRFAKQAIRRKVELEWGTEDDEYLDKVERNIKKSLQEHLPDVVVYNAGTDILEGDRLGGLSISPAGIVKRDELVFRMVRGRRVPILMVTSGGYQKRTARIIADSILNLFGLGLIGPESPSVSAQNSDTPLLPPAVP
Put plainly: Inhibition of recombinant human full length HDAC11 using Boc-Lys (Tfa)-AMC as substrate incubated for 120 mins by fluorescence analysis.

Data set [9] relates to Mus musculus. Put plainly: Anti-pulmonary fibrosis activity in bleomycin-induced ip dosed C57BL/6 mouse model of pulmonary fibrosis assessed as inhibition of Smad3 protein phosphorylation level in lung at for 3 weeks by immunohistochemical analysis. As to conditions: dose 50-100 mg/kg. It is filed as functional, organism-based.
For data set [10], the system named is Mus musculus. Put plainly: Anti-pulmonary fibrosis activity in bleomycin-induced C57BL/6 mouse model of pulmonary fibrosis assessed as recovering mental state at 50 to 100 mg/kg, ip for 3 weeks. It is filed as functional, organism-based. To be noted: dose 50-100 mg/kg.
The target in a further data set is Histone deacetylase 2 (Homo sapiens, UniProt Q92769). Put plainly: Inhibition of recombinant human full length HDAC2 using Boc-Lys (Ac)-AMC as substrate incubated for 120 mins by fluorescence analysis.
Sequence of Histone deacetylase 2 (Q92769 whole entry): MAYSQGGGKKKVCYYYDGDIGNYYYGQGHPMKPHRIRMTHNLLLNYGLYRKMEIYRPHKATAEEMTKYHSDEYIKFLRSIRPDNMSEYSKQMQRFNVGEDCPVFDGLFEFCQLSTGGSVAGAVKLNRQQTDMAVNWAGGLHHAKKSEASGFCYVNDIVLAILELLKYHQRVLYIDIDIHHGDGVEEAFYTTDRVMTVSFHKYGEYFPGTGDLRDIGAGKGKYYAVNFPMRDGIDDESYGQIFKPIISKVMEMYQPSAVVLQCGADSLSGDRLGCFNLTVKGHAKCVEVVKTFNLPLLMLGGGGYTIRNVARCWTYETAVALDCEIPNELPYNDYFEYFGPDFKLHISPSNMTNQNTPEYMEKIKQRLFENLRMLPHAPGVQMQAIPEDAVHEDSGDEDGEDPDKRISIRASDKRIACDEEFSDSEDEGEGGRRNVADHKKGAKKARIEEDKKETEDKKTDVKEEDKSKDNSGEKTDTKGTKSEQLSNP
A short description of data set [11]: Half life in human liver microsomes at 100 uM by LC-MS/MS analysis. It is filed as ADME, Microsome. In general terms: Microsomes from liver hold many membrane-bound enzymes, among them those of drug oxidation.
The subject of data set [12] is Mus musculus. Put plainly: Anti-pulmonary fibrosis activity in bleomycin-induced C57BL/6 mouse model of pulmonary fibrosis assessed as decrease in inflammatory cell infiltration in lung at 50 to 100 mg/kg, ip for 3 weeks by H and E staining based fluorescence microscopic analysis. It is filed as functional, organism-based. To be noted: dose 50-100 mg/kg.
Data set [13] is described as follows: Intrinsic clearance in human liver at 100 uM incubated upto 60 mins by LC-MS/MS analysis. It is filed as ADME, tissue-based. As to conditions: read-out: CLH.
The test system of data set [14] is Mus musculus. The data set can be described thus: Anti-pulmonary fibrosis activity in bleomycin-induced C57BL/6 mouse model of pulmonary fibrosis assessed as decrease in collapse of the alveolar cavity in lung at 50 to 100 mg/kg, ip for 3 weeks by H and E staining based fluorescence microscopic analysis. It is filed as functional, organism-based. As to conditions: dose 50-100 mg/kg.

Active and inactive are the calls of the source. Bounds are passed on as bounds.

By IC50 is commonly meant the concentration that inhibits the measured activity by half. The half-life is the time needed for the level to fall by half in the phase considered. A higher half-life goes with slow loss.

Sequence of Histone deacetylase 4 (P56524 whole entry): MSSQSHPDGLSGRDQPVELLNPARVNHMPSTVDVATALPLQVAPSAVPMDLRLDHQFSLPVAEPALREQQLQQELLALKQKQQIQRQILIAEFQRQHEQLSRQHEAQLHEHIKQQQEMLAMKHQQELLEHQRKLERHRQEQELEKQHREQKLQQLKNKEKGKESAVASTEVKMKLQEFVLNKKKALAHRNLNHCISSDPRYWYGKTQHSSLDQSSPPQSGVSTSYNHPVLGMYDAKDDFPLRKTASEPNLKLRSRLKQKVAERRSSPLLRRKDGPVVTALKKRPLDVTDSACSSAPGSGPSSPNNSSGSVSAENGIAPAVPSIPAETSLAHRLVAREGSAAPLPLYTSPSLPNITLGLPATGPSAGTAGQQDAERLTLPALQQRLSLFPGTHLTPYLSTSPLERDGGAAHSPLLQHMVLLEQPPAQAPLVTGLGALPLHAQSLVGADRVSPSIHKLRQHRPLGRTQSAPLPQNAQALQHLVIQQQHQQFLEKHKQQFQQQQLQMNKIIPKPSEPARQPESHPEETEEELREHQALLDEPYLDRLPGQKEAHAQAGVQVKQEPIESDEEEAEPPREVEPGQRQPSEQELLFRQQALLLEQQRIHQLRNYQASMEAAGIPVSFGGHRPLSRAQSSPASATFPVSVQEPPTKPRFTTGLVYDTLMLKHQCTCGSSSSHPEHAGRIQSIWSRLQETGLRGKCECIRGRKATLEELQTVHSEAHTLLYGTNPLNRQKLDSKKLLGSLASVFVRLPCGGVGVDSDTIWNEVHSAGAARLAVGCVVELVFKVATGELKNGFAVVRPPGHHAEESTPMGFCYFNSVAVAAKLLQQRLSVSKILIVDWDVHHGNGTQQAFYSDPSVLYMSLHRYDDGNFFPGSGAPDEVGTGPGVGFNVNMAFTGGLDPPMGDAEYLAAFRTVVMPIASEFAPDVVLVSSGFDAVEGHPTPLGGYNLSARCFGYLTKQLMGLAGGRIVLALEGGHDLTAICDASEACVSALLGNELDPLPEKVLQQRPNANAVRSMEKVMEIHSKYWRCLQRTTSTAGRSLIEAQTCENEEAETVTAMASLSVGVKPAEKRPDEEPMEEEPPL

Turning to `CC(=O)O.O=C(NO)c1ccc(CN2C(=O)[C@@H]3CCCN3Cc3ccccc32)cc1`, the result in the data set with Mus musculus [1] and in the data set with Mus musculus [8] was inactive. Moreover, the outcome with Mus musculus [2], with Mus musculus [3], in the data set on Mus musculus [6], with Mus musculus [10], in the data set with Mus musculus [12] and with Mus musculus [14] was Active. The concentration for half-maximal inhibition (IC50) at Histone deacetylase 4 was 0.847 µM; in data set [4], 0.00897 µM; on Histone deacetylase 11, above 50 µM; at Histone deacetylase 2, 3.14 µM. In addition, the Activity entry in data set [5] is recorded as “Non-Toxic”. In the data set on Mus musculus [7], the inhibition entry was “Active”. For the same molecule, in the data set on Mus musculus [9], the inhibition result was “Dose-Dependent Effect”. In addition, the half-life at 100 µM in [11] was above 2.42 h. The CLint scaled at 100 µM in data set [13] was below 8.6 mL/min/kg.

For the origin of these results see ChEMBL document CHEMBL5584244, “Discovery of novel pyrrolo[2,1-c][1,4]benzodiazepine-3,11-dione (PBD) derivatives as selective HDAC6 inhibitors for the efficient treatment of idiopathic pulmonary fibrosis (IPF) in vitro and in vivo” (Eur J Med Chem, 2024).
